ChEMBL document CHEMBL3097994, “Simplified captopril analogues as NDM-1 inhibitors” (Bioorg Med Chem Lett, 2014)
Calls of active or inactive are those of the source. The rule behind the calls is not given here.

Experiment: Inhibition of NDM-1 (unknown origin) using imipenem as substrate by spectrophotometric analysis
`CC(CO)CS` (stereo not drawn) showed an IC50 of 15 µM.
For `CC(CS)C(=O)NCCc1ccccc1` (stereo not drawn), the IC50 was > 200 µM.
With `CONC(=O)[C@@H](C)CS` the IC50 was 92 µM.
`C[C@@H](CS)C(=O)NCc1ccccc1` gave an IC50 of 1.5 µM.
Molecule `C[C@H](CS)C(=O)NCc1ccccc1O` has an IC50 of 5 µM.
With `CC(CS)C(=O)Nc1ncc[nH]1` (stereo not drawn) the IC50 was > 200 µM.
`CCCCNC(=O)C(C)CS` (stereo not drawn) showed an IC50 of 20 µM.
With `Cc1coc(NC(=O)C(C)CS)n1` (stereo not drawn) the IC50 was 21 µM.
In the case of `C[C@H](CS)C(=O)NCc1ccc(O)cc1`, the IC50 is reported as > 200 µM.
With `CON(C)C(=O)[C@@H](C)CS` the IC50 was 48 µM.
For `CC(CS)C(=O)Nc1nccs1` (stereo not drawn), the IC50 was > 200 µM.
For `CC(CS)C(=O)NCc1ccc(F)cc1` (stereo not drawn), the IC50 was > 200 µM.
With `Cc1ccccc1CNC(=O)[C@H](C)CS` the IC50 was > 200 µM.
`OCC(S)CS` (stereo not drawn) [DIMERCAPROL] gave an IC50 of 10.4 µM.
`CC(CS)C(=O)O` (racemic) showed an IC50 of 56 µM.
For `CC(CS)C(=O)Nc1ccc(F)cc1` (stereo not drawn), the IC50 was > 200 µM.
In the case of `CC(CS)C(=O)NCCc1cccs1` (stereo not drawn), the IC50 is reported as > 200 µM.
Molecule `CONC(=O)[C@H](C)CS` has an IC50 of 55 µM.
In the case of `CON(C)C(=O)[C@H](C)CS`, the IC50 is reported as 20 µM.
For `CSCCNC(=O)[C@H](C)CS`, the IC50 was 13 µM.
For `CC(CS)C(=O)NCc1ccco1` (stereo not drawn), the IC50 was > 200 µM.
In the case of `COc1ccc(CONC(=O)C(C)CS)cc1` (stereo not drawn), the IC50 is reported as > 200 µM.
In the case of `C[C@@H](CS)C(=O)O`, the IC50 is reported as 53 µM.
In the case of `CC(CS)C(=O)Nc1cccc(F)c1` (stereo not drawn), the IC50 is reported as > 200 µM.
With `CC(CS)C(=O)Nc1ncc(Br)s1` (stereo not drawn) the IC50 was 52 µM.
Molecule `C[C@H](CS)C(=O)O` has an IC50 of 81 µM.
For `C[C@H](CS)C(=O)NCCS(C)(=O)=O`, the IC50 was 120 µM.
With `CC(CS)C(=O)Nc1ccccc1` (stereo not drawn) the IC50 was 135 µM.
For `C[C@H](CS)C(=O)NCc1ccccc1`, the IC50 was 5 µM.

Experiment: Inhibition of NDM-1 (unknown origin) using imipenem as substrate at 1 mM by spectrophotometric analysis
With `COC(=O)C(C)CS` (stereo not drawn) the inhibition was “inactive”.
For `CC(CS)C(=O)N1CCOCC1` (stereo not drawn), the inhibition was “inactive”.
With `CNc1ccccc1NC(=O)C(C)CS` (stereo not drawn) the inhibition was “inactive”.

Experiment: Inhibition of NDM-1 (unknown origin)
In the case of `C[C@H](CS)C(=O)N1CCC[C@H]1C(=O)O` [CAPTOPRIL], the IC50 is reported as 39 µM.
